In ChEMBL document CHEMBL5625233, “Exploring positions 6 and 7 of a quinazoline-based scaffold leads to changes in selectivity and potency towards RIPK2/3 kinases” (Eur J Med Chem, 2023):
The source made the active and inactive calls. The calls are words filed in the database; no cut-off is given here.

Key:
[1] = molecular target: T1, Receptor-interacting serine/threonine-protein kinase 2 (Homo sapiens, UniProt O43353); assay: Inhibition of N-terminal polyHis-tagged human RIPK2 (8 to 310 residues) expressed in Sf9 cells using MBP as substrate preincubated for 15 mins followed by ATP addition measured after 90 mins by ADP-Glo assay
T1 sequence (O43353 whole entry, the tested form may be a part): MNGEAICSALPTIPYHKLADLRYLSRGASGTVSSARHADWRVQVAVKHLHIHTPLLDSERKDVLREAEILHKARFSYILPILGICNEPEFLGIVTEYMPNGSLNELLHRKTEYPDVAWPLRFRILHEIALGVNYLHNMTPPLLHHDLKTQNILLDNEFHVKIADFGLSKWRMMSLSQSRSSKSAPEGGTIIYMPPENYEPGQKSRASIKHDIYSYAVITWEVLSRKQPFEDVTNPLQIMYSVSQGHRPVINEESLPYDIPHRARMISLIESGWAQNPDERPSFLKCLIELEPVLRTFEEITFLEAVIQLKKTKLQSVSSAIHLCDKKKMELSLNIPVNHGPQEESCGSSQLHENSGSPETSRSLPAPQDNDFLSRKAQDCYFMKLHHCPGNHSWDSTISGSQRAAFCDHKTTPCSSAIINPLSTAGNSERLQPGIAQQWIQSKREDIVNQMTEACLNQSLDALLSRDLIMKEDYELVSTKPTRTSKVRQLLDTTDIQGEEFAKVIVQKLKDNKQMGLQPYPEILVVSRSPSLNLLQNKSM

[2] = molecular target: T2, Receptor-interacting serine/threonine-protein kinase 3 (Homo sapiens, UniProt Q9Y572); assay: Inhibition of N-terminal polyHis-tagged human RIPK3 (1 to 307 residues) expressed in Sf9 cells using MBP as substrate upto 10 uM preincubated for 15 mins followed by ATP addition measured after 90 mins by ADP-Glo assay; conditions: time 105.0 min
Target sequence in this assay (Q9Y572 whole entry, looked up, the tested form may be a part): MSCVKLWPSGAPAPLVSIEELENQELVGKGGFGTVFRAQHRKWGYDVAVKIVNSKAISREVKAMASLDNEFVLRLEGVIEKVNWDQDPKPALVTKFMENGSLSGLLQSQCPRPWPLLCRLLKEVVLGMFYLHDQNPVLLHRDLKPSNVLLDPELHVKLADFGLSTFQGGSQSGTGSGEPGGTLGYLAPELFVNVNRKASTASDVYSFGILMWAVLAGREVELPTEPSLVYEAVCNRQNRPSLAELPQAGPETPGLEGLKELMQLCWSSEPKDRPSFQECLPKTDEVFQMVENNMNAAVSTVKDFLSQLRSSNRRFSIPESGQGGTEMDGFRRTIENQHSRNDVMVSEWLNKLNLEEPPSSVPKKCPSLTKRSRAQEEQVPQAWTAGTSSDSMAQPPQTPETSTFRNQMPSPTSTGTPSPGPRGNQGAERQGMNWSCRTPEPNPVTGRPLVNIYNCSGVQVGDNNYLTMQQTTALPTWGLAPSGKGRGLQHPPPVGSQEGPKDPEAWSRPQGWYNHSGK

[3] = molecular target: T3, Receptor-interacting serine/threonine-protein kinase 1 (Homo sapiens, UniProt Q13546); assay: Inhibition of N-terminal polyHis-tagged human RIPK1 (1 to 321 residues) expressed in Sf9 cells using MBP as substrate preincubated for 15 mins followed by ATP addition measured after 90 mins by ADP-Glo assay
T3 sequence (Q13546 whole entry): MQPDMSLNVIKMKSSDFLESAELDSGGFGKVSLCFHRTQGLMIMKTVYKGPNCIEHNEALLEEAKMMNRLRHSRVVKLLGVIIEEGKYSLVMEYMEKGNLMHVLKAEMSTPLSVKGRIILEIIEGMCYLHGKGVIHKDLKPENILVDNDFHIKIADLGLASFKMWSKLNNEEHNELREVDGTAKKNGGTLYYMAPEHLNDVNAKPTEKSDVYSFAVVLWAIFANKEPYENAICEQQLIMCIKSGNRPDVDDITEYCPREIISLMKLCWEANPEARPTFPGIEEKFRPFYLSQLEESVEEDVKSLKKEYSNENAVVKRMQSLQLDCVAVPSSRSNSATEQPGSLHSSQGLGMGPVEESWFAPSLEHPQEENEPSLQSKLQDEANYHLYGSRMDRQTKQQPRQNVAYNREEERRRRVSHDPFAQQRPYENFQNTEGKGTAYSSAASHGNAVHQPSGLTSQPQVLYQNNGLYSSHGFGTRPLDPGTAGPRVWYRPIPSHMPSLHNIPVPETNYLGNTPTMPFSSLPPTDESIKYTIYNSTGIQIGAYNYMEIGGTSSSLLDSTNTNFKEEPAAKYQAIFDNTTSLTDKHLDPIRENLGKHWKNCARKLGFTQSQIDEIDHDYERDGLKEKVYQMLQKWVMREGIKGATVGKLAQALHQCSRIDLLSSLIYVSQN

[4] = molecular target: T4, Receptor-interacting serine/threonine-protein kinase 4 (Homo sapiens, UniProt P57078); assay: Inhibition of N-terminal polyHis-tagged human RIPK4 (1 to 321 residues) expressed in Sf9 cells using MBP as substrate preincubated for 15 mins followed by ATP addition measured after 90 mins by ADP-Glo assay
T4 sequence (P57078 whole entry): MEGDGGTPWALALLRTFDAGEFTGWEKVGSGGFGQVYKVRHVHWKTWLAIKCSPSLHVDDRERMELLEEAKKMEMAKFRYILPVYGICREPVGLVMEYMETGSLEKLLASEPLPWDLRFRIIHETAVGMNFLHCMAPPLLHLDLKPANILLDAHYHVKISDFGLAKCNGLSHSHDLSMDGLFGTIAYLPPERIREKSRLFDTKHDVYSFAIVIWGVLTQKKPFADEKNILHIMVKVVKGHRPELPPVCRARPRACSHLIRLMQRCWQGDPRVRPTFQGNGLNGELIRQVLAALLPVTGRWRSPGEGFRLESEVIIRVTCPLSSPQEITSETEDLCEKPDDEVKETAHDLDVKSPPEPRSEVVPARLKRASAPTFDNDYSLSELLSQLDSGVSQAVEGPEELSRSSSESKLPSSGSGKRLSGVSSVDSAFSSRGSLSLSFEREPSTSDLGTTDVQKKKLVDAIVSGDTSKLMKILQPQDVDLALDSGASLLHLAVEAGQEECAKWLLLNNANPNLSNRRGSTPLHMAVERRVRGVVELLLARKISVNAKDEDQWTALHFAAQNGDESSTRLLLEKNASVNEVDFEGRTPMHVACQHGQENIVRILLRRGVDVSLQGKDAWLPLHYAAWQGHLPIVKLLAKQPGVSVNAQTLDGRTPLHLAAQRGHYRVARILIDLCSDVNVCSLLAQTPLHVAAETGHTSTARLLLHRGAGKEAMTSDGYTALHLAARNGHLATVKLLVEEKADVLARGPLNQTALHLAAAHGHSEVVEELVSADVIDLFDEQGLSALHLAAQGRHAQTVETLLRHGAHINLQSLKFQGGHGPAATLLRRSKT

[5] = molecular target: T1, Receptor-interacting serine/threonine-protein kinase 2; assay: Inhibition of RIPK2-mediated NF-kappaB signalling in C14-TriLAN-Gly-treated human THP-1 cells upto 10 uM preincubated for 30 mins followed by C14-TriLAN-Gly addition measured after 24 hrs by luminescence based assay; format: cell-based
[6] = molecular target: T1, Receptor-interacting serine/threonine-protein kinase 2; assay: Inhibition of RIPK2-mediated NF-kappaB signalling in MDP-treated human THP-1 cells upto 10 uM preincubated for 30 mins followed by MDP addition measured after 24 hrs by luminescence based assay; format: cell-based
[7] = molecular target: T1, Receptor-interacting serine/threonine-protein kinase 2; assay: Inhibition of RIPK2-mediated NF-kappaB signalling in C14-TriLAN-Gly-treated human THP-1 cells preincubated for 30 mins followed by C14-TriLAN-Gly addition measured after 24 hrs by luminescence based assay; format: cell-based
[8] = molecular target: T1, Receptor-interacting serine/threonine-protein kinase 2; assay: Inhibition of RIPK2-mediated NF-kappaB signalling in MDP-treated human THP-1 cells preincubated for 30 mins followed by MDP addition measured after 24 hrs by luminescence based assay; format: cell-based
[9] = molecular target: T2, Receptor-interacting serine/threonine-protein kinase 3; assay: Inhibition of N-terminal polyHis-tagged human RIPK3 (1 to 307 residues) expressed in Sf9 cells using MBP as substrate preincubated for 15 mins followed by ATP addition measured after 90 mins by ADP-Glo assay
Target sequence in this assay (Q9Y572 whole entry, the tested form may be a part): as the sequence (Q9Y572 whole entry, looked up, the tested form may be a part) above

COc1cccc(-c2ccc3ncnc(Nc4ccc5scnc5c4)c3c2)n1
IC50 [1]: 49 nM
inhibition [2]: inactive
IC50 [3]: > 50 µM
IC50 [4]: > 50 µM
IC50 [5]: Not Active
IC50 [6]: Not Active

CC(C)S(=O)(=O)c1ccc2nccc(Nc3ccc4scnc4c3)c2c1
IC50 [1]: 2 nM
IC50 [7]: 9 nM
IC50 [8]: 4 nM

Cn1cnc(-c2cc3c(Nc4ccc5scnc5c4)ncnc3cc2Cl)c1
IC50 [1]: 10 nM
inhibition [2]: inactive
IC50 [3]: > 50 µM
IC50 [4]: > 50 µM
IC50 [7]: 208 nM
IC50 [8]: 140 nM

OCc1cccc(-c2cc3ncnc(Nc4ccc5scnc5c4)c3cc2-c2cccs2)c1
IC50 [1]: 5 nM
IC50 [9]: 551 nM
IC50 [3]: > 50 µM
IC50 [4]: > 50 µM
IC50 [7]: 432 nM
IC50 [8]: 396 nM

Clc1cc2ncnc(Nc3ccc4scnc4c3)c2cc1-c1cc[nH]n1
IC50 [1]: 10 nM
inhibition [2]: inactive
IC50 [3]: > 50 µM
IC50 [4]: > 50 µM
IC50 [7]: 155 nM
IC50 [6]: Not Active

Cn1ccnc1-c1ccc2ncnc(Nc3ccc4scnc4c3)c2c1
IC50 [1]: 12 nM
inhibition [2]: inactive
IC50 [3]: > 50 µM
IC50 [4]: > 50 µM
IC50 [7]: 239 nM
IC50 [8]: 273 nM

Cc1nc(-c2cc3c(Nc4ccc5scnc5c4)ncnc3cc2Cl)sc1C
inhibition [2]: inactive
IC50 [3]: > 50 µM
IC50 [4]: > 50 µM
IC50 [5]: Not Active
IC50 [6]: Not Active

Cn1nc(C(F)(F)F)cc1-c1cc2c(Nc3ccc4scnc4c3)ncnc2cc1Cl
IC50 [1]: 324 nM
IC50 [9]: 2600 nM
IC50 [3]: > 50 µM
IC50 [4]: > 50 µM
IC50 [7]: 4570 nM
IC50 [8]: 3360 nM

Clc1cc2ncnc(Nc3ccc4scnc4c3)c2cc1-c1ccccc1
inhibition [2]: inactive
IC50 [3]: > 50 µM
IC50 [4]: > 50 µM
IC50 [5]: Not Active
IC50 [6]: Not Active

Cc1csc(-c2ccc3ncnc(Nc4ccc5scnc5c4)c3c2)n1
IC50 [1]: 5 nM
IC50 [9]: 382 nM
IC50 [3]: > 50 µM
IC50 [4]: > 50 µM
IC50 [7]: 2750 nM
IC50 [6]: Not Active

Cn1nccc1-c1cc2c(Nc3ccc4scnc4c3)ncnc2cc1Cl
IC50 [1]: 18 nM
IC50 [9]: 1600 nM
IC50 [3]: > 50 µM
IC50 [4]: > 50 µM
IC50 [7]: 313 nM
IC50 [8]: 318 nM

Cc1ccsc1-c1cc2c(Nc3ccc4scnc4c3)ncnc2cc1Cl
IC50 [1]: 52 nM
inhibition [2]: inactive
IC50 [3]: > 50 µM
IC50 [4]: > 50 µM
IC50 [5]: Not Active
IC50 [6]: Not Active

Cc1nc(-c2ccc3ncnc(Nc4ccc5scnc5c4)c3c2)sc1C
IC50 [1]: 14 nM
inhibition [2]: inactive
IC50 [3]: > 50 µM
IC50 [4]: > 50 µM
IC50 [5]: Not Active
IC50 [6]: Not Active

c1ccc(-c2ccc3ncnc(Nc4ccc5scnc5c4)c3c2)cc1
IC50 [1]: 18 nM
IC50 [9]: 3600 nM
IC50 [3]: > 50 µM
IC50 [4]: > 50 µM
IC50 [7]: 4360 nM
IC50 [8]: 2130 nM

COc1cccc(-c2cc3c(Nc4ccc5scnc5c4)ncnc3cc2Cl)n1
IC50 [1]: 3900 nM
inhibition [2]: inactive
IC50 [3]: > 50 µM
IC50 [4]: > 50 µM
IC50 [5]: Not Active
IC50 [6]: Not Active

Clc1cc2ncnc(Nc3ccc4scnc4c3)c2cc1-c1cccs1
IC50 [1]: 14 nM
inhibition [2]: inactive
IC50 [3]: > 50 µM
IC50 [4]: > 50 µM
IC50 [5]: Not Active
IC50 [6]: Not Active

Cc1csc(-c2cc3c(Nc4ccc5scnc5c4)ncnc3cc2Cl)n1
inhibition [2]: inactive
IC50 [3]: > 50 µM
IC50 [4]: > 50 µM
IC50 [5]: Not Active
IC50 [6]: Not Active

Cn1cccc1-c1ccc2ncnc(Nc3ccc4scnc4c3)c2c1
IC50 [1]: 22 nM
IC50 [9]: 2900 nM
IC50 [3]: > 50 µM
IC50 [4]: > 50 µM
IC50 [7]: 726 nM
IC50 [8]: 523 nM

c1nc(Nc2ccc3scnc3c2)c2cc(-c3cc[nH]n3)ccc2n1
IC50 [1]: 6 nM
IC50 [9]: 2100 nM
IC50 [3]: > 50 µM
IC50 [4]: > 50 µM
IC50 [7]: 114 nM
IC50 [8]: 68 nM

Cn1cc(-c2cc3c(Nc4ccc5scnc5c4)ncnc3cc2Cl)cn1
IC50 [1]: 4 nM
inhibition [2]: inactive
IC50 [3]: > 50 µM
IC50 [4]: > 50 µM
IC50 [7]: 67 nM
IC50 [8]: 63 nM

Cc1ncc(-c2cc3c(Nc4ccc5scnc5c4)ncnc3cc2Cl)n1C
IC50 [1]: 10 nM
inhibition [2]: inactive
IC50 [3]: > 50 µM
IC50 [4]: > 50 µM
IC50 [7]: 189 nM
IC50 [8]: 96 nM

Cc1ncc(-c2ccc3ncnc(Nc4ccc5scnc5c4)c3c2)s1
IC50 [1]: 4 nM
IC50 [9]: 6000 nM
IC50 [3]: > 50 µM
IC50 [4]: > 50 µM
IC50 [7]: 136 nM
IC50 [8]: 108 nM

Cc1cscc1-c1ccc2ncnc(Nc3ccc4scnc4c3)c2c1
IC50 [1]: 29 nM
IC50 [9]: 1900 nM
IC50 [3]: > 50 µM
IC50 [4]: > 50 µM
IC50 [7]: 4430 nM
IC50 [8]: 1530 nM

CC(C)(C)S(=O)(=O)c1cc2c(Nc3ccc4scnc4c3)ncnc2cc1OCCOP(=O)(O)O
IC50 [1]: 4 nM
inhibition [2]: inactive
IC50 [7]: 92 nM
IC50 [8]: 38 nM

Cc1cscc1-c1cc2c(Nc3ccc4scnc4c3)ncnc2cc1Cl
IC50 [1]: 104 nM
inhibition [2]: inactive
IC50 [3]: > 50 µM
IC50 [4]: > 50 µM
IC50 [8]: 2080 nM
IC50 [5]: Not Active

Cn1cnc(-c2ccc3ncnc(Nc4ccc5scnc5c4)c3c2)c1
IC50 [1]: 11 nM
inhibition [2]: inactive
IC50 [3]: > 50 µM
IC50 [4]: > 50 µM
IC50 [7]: 209 nM
IC50 [8]: 95 nM

Cc1ncc(-c2cc3c(Nc4ccc5scnc5c4)ncnc3cc2Cl)s1
IC50 [1]: 5 nM
inhibition [2]: inactive
IC50 [3]: > 50 µM
IC50 [4]: > 50 µM
IC50 [7]: 156 nM
IC50 [8]: 103 nM

Cc1ccsc1-c1ccc2ncnc(Nc3ccc4scnc4c3)c2c1
IC50 [1]: 6 nM
IC50 [9]: 388 nM
IC50 [3]: > 50 µM
IC50 [4]: > 50 µM
IC50 [7]: 438 nM
IC50 [8]: 362 nM

Cn1cc(-c2ccc3ncnc(Nc4ccc5scnc5c4)c3c2)cn1
IC50 [1]: 4 nM
IC50 [9]: 1500 nM
IC50 [3]: > 50 µM
IC50 [4]: > 50 µM
IC50 [7]: 47 nM
IC50 [8]: 38 nM

Cc1ncc(-c2ccc3ncnc(Nc4ccc5scnc5c4)c3c2)n1C
IC50 [1]: 9 nM
inhibition [2]: inactive
IC50 [3]: > 50 µM
IC50 [4]: > 50 µM
IC50 [7]: 143 nM
IC50 [8]: 240 nM
